Data: patent US20220202799A1, “PHARMACEUTICAL FORMULATIONS CONTAINING P2Y14 ANTAGONISTS” (priority 2019, published 2022)

Test: Stability of PPTN/SBECD solution on dilution into saline
Type: physicochemical
Settings: 9 mg/mL PPTN
Method: The stability of PPTN in SBECD-containing solutions was analyzed at various concentrations of PPTN. A solution containing 9 mg/mL PPTN and 12% SBECD, as described above, was diluted into saline as described in Table 13.

Measured: Result (appearance after dilution)

O=C(O)c1cc(-c2ccc(C3CCNCC3)cc2)c2ccc(-c3ccc(C(F)(F)F)cc3)cc2c1 [KB-1801, 4-[4-(piperidin-4-yl)phenyl]-7-[4-(trifluoromethyl)phenyl]-2-naphthoic acid]
Clear solution: 12% SBECD stock diluted 3x with saline | 12% SBECD stock diluted 10x with saline | 12% SBECD stock diluted 50x with saline
